From patent US20240352066A1, “ANTIMICROBIAL COMPOUNDS AND THE METHOD OF USE” (priority 2021, published 2024)
≈ marks a conversion by molar mass, not a printed value. Where a SMILES comes first, the peptide text is derived from it. [ ]: non-standard residue; d: D form. N(tridecyl)Gly = CCCCCCCCCCCCCNCC(=O)O; Gly(N-2-aminoethyl) = NCCNCC(=O)O; Gly(N-cHex) = O=C(O)CNC1CCCCC1; Nleu = CC(C)CNCC(=O)O; Nlys = NCCCCNCC(=O)O

Legend:
C. neoformans = assay type: cell-based, Cryptococcus neoformans; details: 72 h
C. albicans biofilm = assay type: cell-based, Candida albicans; details: 24 h
Description: Plates were incubated overnight at 37° C. Media was gently removed and gently washed three times with PBS. RPMI-MOPS (198 μL) were added to each well. 2-fold serial dilutions of 100× peptoid solutions were prepared in water and 2 μL of peptoid were added to each well in triplicate then incubated at 37° C. for 24 hours. PrestoBlue (20 μL) was added to each well and incubated at 37° C. for one hour before measuring fluorescence on a SpectraMax M5 plate reader (Ex. 555 nm; Em. 585 nm).

[1] = tested on: HepG2 hepatocellular carcinoma cells; experiment: Mammalian cytotoxicity, MTT, HepG2; assay type: cell-based, human
In short: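 HepG2 cells (1×10^5 cells/mL, phenol-red-free DMEM, 10% FBS) were exposed to 2-fold dilutions of compound at 1.56–200 μg/mL final, in triplicate, for 72 h at 37 °C, 5% CO2. MTT was added for 3 h and, after DMSO solubilization, absorbance was read at 570 nm. TD50 is the concentration giving a 50% growth reduction versus the water vehicle, reported as the mean of biological replicates ± SD.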

C. neoformans MIC (C. neoformans)	SMILES	MIC C. albicans biofilm (MBIC) (C. albicans biofilm)	MIC C. neoformans (C. neoformans)	TD50 HepG2 [1]	proteolytic degradation / protein binding in human serum
3.13 µg/mL	CCCCCCCCCCCCCNCC(=O)N(CC(=O)N(CCCCN)CC(=O)N(CCN)CC(=O)N(CC(N)=O)CC(C)C)CC(C)C [Compound 9] (H-[N(tridecyl)Gly][Nleu][Nlys][Gly(N-2-aminoethyl)][Nleu]-NH2)				
	CCCCCCCCCCCCCNCC(=O)N(CC(=O)N(CCCCN)CC(=O)N(CCN)CC(=O)N(CC(N)=O)C1CCCCC1)C1CCCCC1 [RMG8-8, Ntri-Ncha-Nlys-Nae-Ncha] (H-[N(tridecyl)Gly][Gly(N-cHex)][Nlys][Gly(N-2-aminoethyl)][Gly(N-cHex)]-NH2)	100 µg/mL (≈ 131 µM)	1.6 µg/mL (≈ 2.1 µM)	189 µg/mL	No proteolytic degradation or significant protein binding
